Reference: ChEMBL document CHEMBL3885881, “DrugMatrix”

Organism: Rattus norvegicus
Assay: DrugMatrix - Regimen: Daily Repeat
Type: toxicity, organism-based, Sprague-Dawley
Set-up: regimen Daily Repeat, gender Male, age 6-8 weeks
Conditions: in vivo, po, 1 mg/kg, route oral GAVAGE, dose level Low, […]; for ABSOLUTE BASOPHIL / ABSOLUTE EOSINOPHIL / ABSOLUTE LYMPHOCYTE / ABSOLUTE MONOCYTE / ABSOLUTE SEGMENTED NEUTROPHIL / BASOPHIL / EOSINOPHIL / HEMATOCRIT / HEMOGLOBIN / LEUKOCYTE COUNT / LYMPHOCYTE / MEAN CORPUSCULAR HEMOGLOBIN / MEAN CORPUSCULAR HEMOGLOBIN CONCENTRATION / MEAN CORPUSCULAR VOLUME / MONOCYTE / NEUTROPHIL / NUCLEATED RED BLOOD CELLS / PLATELET COUNT: tissue Blood; for ALANINE AMINOTRANSFERASE / ALBUMIN / ALKALINE PHOSPHATASE / ASPARTATE AMINOTRANSFERASE / BLOOD UREA NITROGEN / CARBON DIOXIDE / CHLORIDE / CHOLESTEROL / CREATINE PHOSPHOKINASE / CREATININE / GLUCOSE / LACTATE DEHYDROGENASE / LIPASE / PHOSPHORUS / POTASSIUM / SODIUM / TOTAL BILIRUBIN / TOTAL PROTEIN / URIC ACID: tissue Plasma

Compound: O=C(CCCN1CCC(O)(c2ccc(Cl)cc2)CC1)c1ccc(F)cc1 [HALOPERIDOL]
- ABSOLUTE BASOPHIL (72 h, time 3 day): 0 CELLS/uL
- ABSOLUTE EOSINOPHIL (72 h, time 3 day): 94.33 CELLS/uL
- ABSOLUTE LYMPHOCYTE (72 h, time 3 day): 11131.67 CELLS/uL
- ABSOLUTE MONOCYTE (72 h, time 3 day): 120.67 CELLS/uL
- ABSOLUTE SEGMENTED NEUTROPHIL (72 h, time 3 day): 1053.33 CELLS/uL
- BASOPHIL (72 h, time 3 day): 0%
- EOSINOPHIL (72 h, time 3 day): 0.67%
- HEMATOCRIT (72 h, time 3 day): 33.6%
- HEMOGLOBIN (72 h, time 3 day): 13.7 G/DL
- LEUKOCYTE COUNT (72 h, time 3 day): 12.4 x10E3/uL
- LYMPHOCYTE (72 h, time 3 day): 88.33%
- MEAN CORPUSCULAR HEMOGLOBIN (72 h, time 3 day): 25.53 pg
- MEAN CORPUSCULAR HEMOGLOBIN CONCENTRATION (72 h, time 3 day): 40.8 G/DL
- MEAN CORPUSCULAR VOLUME (72 h, time 3 day): 62.6 fL
- MONOCYTE (72 h, time 3 day): 1%
- NEUTROPHIL (72 h, time 3 day): 10%
- NUCLEATED RED BLOOD CELLS (72 h, time 3 day): 0 /100WBC
- PLATELET COUNT (72 h, time 3 day): 969 x10E3/uL
- ALANINE AMINOTRANSFERASE (72 h, time 3 day): 88.67 u/L
- ALBUMIN (72 h, time 3 day): 3.97 G/DL
- ALKALINE PHOSPHATASE (72 h, time 3 day): 450 u/L
- ASPARTATE AMINOTRANSFERASE (72 h, time 3 day): 97.33 u/L
- BLOOD UREA NITROGEN (72 h, time 3 day): 12.33 mg/dL
- CARBON DIOXIDE (72 h, time 3 day): 31.67 mmol/L
- CHLORIDE (72 h, time 3 day): 97 MEQ/L
- CHOLESTEROL (72 h, time 3 day): 75.67 mg/dL
- CREATINE PHOSPHOKINASE (72 h, time 3 day): 318.67 u/L
- CREATININE (72 h, time 3 day): 0.13 mg/dL
- GLUCOSE (72 h, time 3 day): 163.67 mg/dL
- LACTATE DEHYDROGENASE (72 h, time 3 day): 170 u/L
- LIPASE (72 h, time 3 day): 15 u/L
- PHOSPHORUS (72 h, time 3 day): 11.33 mg/dL
- POTASSIUM (72 h, time 3 day): 6.08 MEQ/L
- SODIUM (72 h, time 3 day): 142.45 MEQ/L
- TOTAL BILIRUBIN (72 h, time 3 day): 0.17 mg/dL
- TOTAL PROTEIN (72 h, time 3 day): 5.67 G/DL
- URIC ACID (72 h, time 3 day): 1 mg/dL
- ABSOLUTE BASOPHIL (120 h, time 5 day): 0 CELLS/uL
- ABSOLUTE EOSINOPHIL (120 h, time 5 day): 0 CELLS/uL
- ABSOLUTE LYMPHOCYTE (120 h, time 5 day): 12900 CELLS/uL
- ABSOLUTE MONOCYTE (120 h, time 5 day): 131.67 CELLS/uL
- ABSOLUTE SEGMENTED NEUTROPHIL (120 h, time 5 day): 1068.33 CELLS/uL
- BASOPHIL (120 h, time 5 day): 0%
- EOSINOPHIL (120 h, time 5 day): 0%
- HEMATOCRIT (120 h, time 5 day): 34.63%
- HEMOGLOBIN (120 h, time 5 day): 14.03 G/DL
- LEUKOCYTE COUNT (120 h, time 5 day): 14.1 x10E3/uL
- LYMPHOCYTE (120 h, time 5 day): 91.67%
- MEAN CORPUSCULAR HEMOGLOBIN (120 h, time 5 day): 25.73 pg
- MEAN CORPUSCULAR HEMOGLOBIN CONCENTRATION (120 h, time 5 day): 40.5 G/DL
- MEAN CORPUSCULAR VOLUME (120 h, time 5 day): 63.57 fL
- MONOCYTE (120 h, time 5 day): 1%
- NEUTROPHIL (120 h, time 5 day): 7.33%
- NUCLEATED RED BLOOD CELLS (120 h, time 5 day): 0 /100WBC
- PLATELET COUNT (120 h, time 5 day): 1083 x10E3/uL
- ALANINE AMINOTRANSFERASE (120 h, time 5 day): 51 u/L
- ALBUMIN (120 h, time 5 day): 4.17 G/DL
- ALKALINE PHOSPHATASE (120 h, time 5 day): 383.33 u/L
- ASPARTATE AMINOTRANSFERASE (120 h, time 5 day): 81.33 u/L
- BLOOD UREA NITROGEN (120 h, time 5 day): 16.33 mg/dL
- CARBON DIOXIDE (120 h, time 5 day): 25.67 mmol/L
- CHLORIDE (120 h, time 5 day): 102 MEQ/L
- CHOLESTEROL (120 h, time 5 day): 77.33 mg/dL
- CREATINE PHOSPHOKINASE (120 h, time 5 day): 323.67 u/L
- CREATININE (120 h, time 5 day): 0.18 mg/dL
- GLUCOSE (120 h, time 5 day): 144 mg/dL
- LACTATE DEHYDROGENASE (120 h, time 5 day): 223.33 u/L
- LIPASE (120 h, time 5 day): 11.33 u/L
- PHOSPHORUS (120 h, time 5 day): 10.8 mg/dL
- POTASSIUM (120 h, time 5 day): 6.15 MEQ/L
- SODIUM (120 h, time 5 day): 143.13 MEQ/L
- TOTAL BILIRUBIN (120 h, time 5 day): 0.17 mg/dL
- TOTAL PROTEIN (120 h, time 5 day): 5.77 G/DL
- URIC ACID (120 h, time 5 day): 1.17 mg/dL
